The values that follow are results of earlier work, collected in patent US20060205656A1 (priority 1999, published 2006).

For this data set the following is noted: in vivo.

On to contulakin-G, for which the “potency in inhibiting pain relative to neurotensin” value is “significantly more potent than neurotensin”.
